Measured values: patent US5246935A, “Piperazinyl derivatives and methods of treating central nervous system ailments relating to the 5-HT2 receptor system” (Novo Nordisk A/S, priority 1990, dated 1993)
Where a name gives a salt, the structure may show the parent alone.

Assays:
[1] = target: T1, 5HT1A receptor (Rattus norvegicus, UniProt P19327); experiment: In-Vitro inhibition of 5HT1A receptor binding (3H-8-OH-DPAT); parameters: species or system rat (male Wistar); conditions: 3H-8-OH-DPAT 1 nM, rat frontal cortex and hippocampus, 37° C., 10 min
T1 sequence (P19327 1-422): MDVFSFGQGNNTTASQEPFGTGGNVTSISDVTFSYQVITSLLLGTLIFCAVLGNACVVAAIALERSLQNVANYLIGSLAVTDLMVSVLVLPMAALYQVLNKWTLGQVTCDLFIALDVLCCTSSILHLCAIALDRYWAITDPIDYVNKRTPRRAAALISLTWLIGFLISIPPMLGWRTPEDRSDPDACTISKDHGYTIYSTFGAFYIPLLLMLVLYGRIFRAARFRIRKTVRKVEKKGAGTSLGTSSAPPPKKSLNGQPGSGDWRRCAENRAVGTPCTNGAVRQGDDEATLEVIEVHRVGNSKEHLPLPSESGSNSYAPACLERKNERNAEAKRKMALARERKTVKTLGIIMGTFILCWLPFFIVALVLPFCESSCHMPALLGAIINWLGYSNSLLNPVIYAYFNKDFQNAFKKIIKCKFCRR
Method: In-Vitro inhibition of 5HT1A receptor binding
(§1) Radioactive-labelled ligand ^3 H-80H-DPAT is incubated with isolated cell-membrane fragments at 37° C. for a given period of time. Following completed incubation, the incubate is filtered through GF/F filters which are rinsed after filtration to remove unspecifically adhered radioactivity. As opposed to low-molecular compounds, membrane fragments are not rinsed through the filters, the radioactivity bound to the filters indicates the amount of ligand bound specifically as well as nonspecifically to the membranes.
Male Wistar rats, 150-200 g are decapitated, and frontal cortex (approx. 200 mg) and hippocampus (approx. 70 mg) homogenized in 2×10 ml ice-cold DPAT buffer for 20 sec. applying polytron kinematica setting 6. Centrifuged at 20,000 rpm for 10 min. at 4° C. The pellet is transferred to 2×10 ml ice-cold DPAT buffer, homogenized for 20 sec. and preincubated for 10 min. at 37° C. Centrifuged at 20,000 rpm for 10 min. at 4° C. Final pellet added to 125×vol. of same buffer with 10 μM paragylin added (ex. 270 mg tissue in 33.75 ml DPAT buffer containing paragylin). Prepared fresh every day. Use within 30 minutes.
1,250 μl tissue 25 μl ^3 H-80H-DPAT (1 nM) 25 μl test substance/H2 O/blind serotonin (10 μM)
Incubation at 37° C. for 10 min.--at 10 sec. intervals. To the tubes is added 10 ml ice-cold 0.9% NaCl. Filtration through GF/F filters (use gloves). This procedure is repeated. Filters are placed in counting vials and 4 ml optiflow added (prepare in fume cupboard, use gloves). Counted at window 0-19 of the beta- counter (Pachard). Note that receptor box and lid are rinsed thoroughly in H2 O after use to avoid contamination. Further the analytical site is cleaned carefully every day.
Dissolved in H2 O, EtOH, MeOH or DMSO and further diluted in H2 O. The DPAT binding will stand concentrations of up to approx. 5% of these solvents without affecting the binding. Most stock solutions are stable at 4° C. Attention should, however, be paid to any precipitation, change in colour etc. Test-substance dilutions are always prepared fresh every day. When weighing out test substances, it is attempted to weigh out approx. 1 mg of substance. Less than 0.8 mg must never be weighed out and only infrequently more than 2 mg (for economy reasons) dependent, however on conc./assay.

[2] = target: Dopamine D2 receptor (Rattus norvegicus, UniProt P61169); experiment: In-Vitro Inhibition of Dopamine D2 Receptor Binding (3H-Spiroperidol); parameters: species or system rat (male Wistar); conditions: 3H-Spiroperidol 0.05 nM, rat striatum, 37° C., 20 min
Chain of Dopamine D2 receptor (P61169 whole entry): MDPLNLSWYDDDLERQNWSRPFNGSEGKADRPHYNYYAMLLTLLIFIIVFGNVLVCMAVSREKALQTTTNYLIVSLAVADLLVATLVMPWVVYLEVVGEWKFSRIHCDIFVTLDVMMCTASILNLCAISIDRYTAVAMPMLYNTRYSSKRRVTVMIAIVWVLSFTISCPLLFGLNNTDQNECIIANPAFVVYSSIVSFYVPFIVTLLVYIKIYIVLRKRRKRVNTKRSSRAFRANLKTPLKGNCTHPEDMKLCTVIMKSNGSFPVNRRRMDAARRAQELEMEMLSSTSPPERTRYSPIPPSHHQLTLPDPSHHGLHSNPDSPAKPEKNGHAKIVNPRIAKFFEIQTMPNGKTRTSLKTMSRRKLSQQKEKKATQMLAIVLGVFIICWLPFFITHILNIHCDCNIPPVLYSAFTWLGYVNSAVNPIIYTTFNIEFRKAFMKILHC
Method: In-Vitro Inhibition of Dopamine D2 Receptor Binding,
as §1, with “H-Spiroperidol” for “H-80H-DPAT”, “GF/B” for “GF/F”, “following” for “after”, “low- molecular” for “low-molecular”, “is indicative of” for “indicates”
The procedure is performed in ice bath. Polytron kinematica is rinsed with milli-Q-H2 O before and after use. Male Wistar rats, 150-200 g are decapitated, striatum is removed quickly and weighed (approx. 50 mg). Striatum is transferred to a centrifuging vial containing 10 ml ice-cold D2 buffer. Homogenization is performed applying polytron kinematica (homogenizer) setting 6 for 20 sec. The homogenizer is rinsed with 10 ml D2 buffer in another centrifuging vial. The 10 ml rinsing buffer is added to the tissue vial. Centrifugation at 18,000 rpm for 10 min. at 4° C. Final pellet is transferred to 1,000×vol. of same buffer. (Ex. 50 mg striatum in 50 ml D2 buffer). Can be stored at 0° C. for at least 4 hours. Note that the tissue must homogeneous (uniform) before use. If not, brief homogenization is performed.
2,500 μl tissue (homogeneous)
25 μl ^3 H-Spiroperidol (0.05 nM)
25 μl test substance/H2 O/blind (Domperidone 0.2 μM)
Incubation for 20 min. at 37° C.-10 min. on ice bath.
10 ml ice-cold 0.9% NaCl is added to the tubes and filtered through GF/B filters (use gloves). This procedure is repeated. The filters are placed in counting vials and 4 ml opti-flour is added (perform in fume cupboard, use gloves). Counting is performed at window 0-19 of the beta-counter (Pachard). Note that receptor box and lid are rinsed thoroughly in H2 O after use to avoid contamination. Further, the analytical site is cleaned carefully every day after use.
Dissolved in H2 O, EtOH, MeOH or DMSO and further diluted in H2 O. The D2 binding will stand concentrations of up to approx. 20% of these solvents without affecting the binding. Most stock solutions are stable at 4° C., attention is, however, paid to any precipitation, change in colour etc. Test-substance dilutions are always made fresh every day. When weighing out test substances, it is attempted to weigh out approx. 1 mg of substance. Less than 0.8 mg must never be weighed out and only infrequently more than 2 mg (for economy reasons), dependent, however, on conc./assay.

`COc1ccc2cccc(N3CCN(CCCOC(=O)Nc4ccc5c(c4)OCO5)CC3)c2c1` [Example 34, 1-(7-Methoxy-1-naphthyl)-4-[3-(3,4-methylenedioxyphenylcarbamoyloxy)propyl]piperazine, HCl] showed an IC50 [1] of 1.6 nM and an IC50 [2] of 4.3 nM.
`COc1cc(NC(=O)OCCCN2CCN(c3ccc(F)cc3)CC2)cc(OC)c1OC` [Example 8, 4-(4-Fluorophenyl)-1-[3-(3,4,5-trimethoxyphenylcarbamoyloxy)propyl]piperazine, hydrochloride] gave an IC50 [1] of over 1000 nM and an IC50 [2] of 720 nM.
Work on `O=C(Nc1ccc2ncsc2c1)OCCCN1CCN(c2ccc(Cl)cc2)CC1` [Example 19, 4-(4-Chlorophenyl)-1-[3-(6-benzothiazolylcarbamoyloxy)propyl]piperazine, hydrochloride] yielded an IC50 [1] of over 1000 nM and an IC50 [2] of 150 nM.
In the case of `COc1cc(NC(=O)OCCCN2CCN(c3ccccc3Cl)CC2)cc(OC)c1OC.Cl` [Example 3, 4-(2-Chlorophenyl)-1-[3-(3,4,5-trimethoxyphenylcarbamoyloxy)propyl]piperazine, hydrochloride], the IC50 [1] is reported as over 300 nM and the IC50 [2] is reported as 120 nM.
